From patent US12091389B2, “Pyrazolylbenzene-1,3-diols for diseases associated with g protein-coupled receptor 18 and in combination with transient receptor potential vanilloid 1” (Temple University—Of The Commonwealth System of Higher …, priority 2020, dated 2024)

Target: TRPV1 (Homo sapiens, UniProt Q8NER1)
Experiment: Calcium imaging (Fura-2 AM) in TRPV1-expressing HEK293 cells
Assay type: cell-based
Settings: compound alone, 5 μM

Chain of TRPV1 (Q8NER1 whole entry): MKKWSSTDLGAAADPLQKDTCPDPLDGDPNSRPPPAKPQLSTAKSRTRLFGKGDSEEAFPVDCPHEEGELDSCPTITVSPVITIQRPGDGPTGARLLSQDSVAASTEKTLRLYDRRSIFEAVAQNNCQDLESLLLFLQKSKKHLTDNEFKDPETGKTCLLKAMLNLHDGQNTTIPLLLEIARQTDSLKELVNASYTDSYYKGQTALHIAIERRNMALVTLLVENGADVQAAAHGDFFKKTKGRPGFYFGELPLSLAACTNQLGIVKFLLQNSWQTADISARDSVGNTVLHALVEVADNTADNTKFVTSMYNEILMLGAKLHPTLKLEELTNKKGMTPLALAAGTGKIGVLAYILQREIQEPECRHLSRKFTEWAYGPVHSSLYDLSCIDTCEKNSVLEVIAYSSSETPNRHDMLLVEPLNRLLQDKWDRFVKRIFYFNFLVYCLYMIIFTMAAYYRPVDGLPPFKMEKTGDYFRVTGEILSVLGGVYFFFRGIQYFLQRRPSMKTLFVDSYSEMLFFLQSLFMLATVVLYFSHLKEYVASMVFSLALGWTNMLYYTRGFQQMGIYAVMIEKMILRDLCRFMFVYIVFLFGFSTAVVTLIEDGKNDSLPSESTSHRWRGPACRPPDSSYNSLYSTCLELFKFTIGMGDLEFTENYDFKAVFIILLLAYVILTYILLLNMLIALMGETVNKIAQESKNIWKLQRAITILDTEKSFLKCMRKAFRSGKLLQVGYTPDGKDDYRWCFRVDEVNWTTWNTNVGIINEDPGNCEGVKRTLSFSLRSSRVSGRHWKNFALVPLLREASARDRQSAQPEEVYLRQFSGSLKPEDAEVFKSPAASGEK

CCCCC/C=C\C/C=C\C/C=C\C/C=C\CCCC(=O)NCCO [Anandamide]
Effect on intracellular calcium (Ca^2+) in TPRV1-expressing cells: increases intracellular calcium
